Laboratory results published in patent US11111240B2, “Sultam compound and application method thereof” (Chia Tai Tianqing Pharmaceutical Group Co., Ltd., priority 2016, dated 2021).

Target: IDH1 (R132H) (Homo sapiens (Human), UniProt O75874, R132H)
Assay: Enzyme assay, IDH1m inhibition (NADPH decrease, diaphorase/resazurin)
Format: biochemical
Conditions: 40 nM enzyme, 16 h pre-incubation at 23° C.
From the text: Resazurin is a traditional redox dye, and after a redox reaction, it can be reduced from a blue resazurin without fluorescence to a pink fluorescent substance, resorufin, which can be measured and quantified with relative fluorescence unit (RFU) of fluorophotometer (Ex=530-570 nm, Em=590-620 nm). At present, resazurin is widely used for determining the viability of bacteria, cells, etc. and the enzyme activity detection of oxidoreductase. We detected the decrease of cofactor NADPH to determine the inhibitory activity of a compound against IDH1m and detected the generation of cofactor NADPH to determine the inhibitory activity of a compound against IDH WT. The compound was pre-incubated with IDH1m and NADPH, and then the reaction was initiated by adding α-KG and performed for certain time under a linear condition. Then, diaphorase (lipoamide dehydrogenase) and the corresponding substrate resazurin were added thereto for detection. Lipoamide dehydrogenase terminated the IDH1m reaction by decreasing the available cofactor NADPH, which oxidized NADPH to NADP, and reduced resazurin to high fluorescent resorufin. The amount of the remaining cofactor NADPH after a specific reaction time was quantified via an easily detectable fluorophore.
The specific operation was as follows: 2.5 μl of the compound diluted in a 3-fold gradient was added to a 384-well plate, followed by adding 5 μl of the reaction buffer (20 mM Tris-HCl, pH 7.5; 150 mM NaCl; 10 mM MgCl2; 0.4 mg/mL BSA (Bovine Serum Albumin) and 2 mM DTT (dithiothreitol)) containing 40 nM IDH1 (R132H/R132C) and 20 μM NADPH. Then, the above test mixture was incubated at 23° C. for 16 hours, and then 2.5 μl of the reaction buffer containing 4 mM α-KG was added to initiate the reaction. After they were incubated for 60 minutes at room temperature, 5 μl of the termination mixture (0.4 U/ml diaphorase and 20 μM resazurin) formulated with the reaction buffer was added to convert resazurin to resorufin, so as to measure the amount of the remaining NADPH. After incubating at 23° C. for 10 minutes, fluorescence values were determined through Flexstation 3 at Ex535/Em595. The enzyme activity of each compound was respectively determined at 12 concentrations, and the data were calculated using the software GraFit6.0 (Erithacus Software) to obtain the IC50 value of each compound.

Sequence of IDH1 (R132H) (O75874 whole entry R132H): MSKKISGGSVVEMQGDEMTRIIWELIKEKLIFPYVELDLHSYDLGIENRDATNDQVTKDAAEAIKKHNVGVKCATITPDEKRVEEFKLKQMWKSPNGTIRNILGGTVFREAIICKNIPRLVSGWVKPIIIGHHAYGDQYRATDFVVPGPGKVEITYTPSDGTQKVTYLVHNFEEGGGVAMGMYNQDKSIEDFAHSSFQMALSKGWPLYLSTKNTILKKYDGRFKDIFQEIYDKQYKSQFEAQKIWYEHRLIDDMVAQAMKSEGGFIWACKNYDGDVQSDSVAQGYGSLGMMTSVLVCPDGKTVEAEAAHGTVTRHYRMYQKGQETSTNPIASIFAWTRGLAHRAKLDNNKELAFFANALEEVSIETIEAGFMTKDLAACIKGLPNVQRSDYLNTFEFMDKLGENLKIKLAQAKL

Row | IC50 | Structure (SMILES)
1 | < 10000 nM | N#Cc1ccnc(N2[C@H](C(=O)N(c3cncc(F)c3)[C@@H](C(=O)NC3CC(F)(F)C3)c3ccccc3Cl)CCS2(=O)=O)c1 [Example 1, (S)—N—((R)-1-(2-chlorophenyl)-2-((3,3-difluorocyclobutyl)amino)-2-oxoethyl)-2-(4-cyanopyridin-2-yl)-N-(5-fluoropyridin-3-yl)-isothiazolidine-3-carboxamide 1,1-dioxide]
2 | < 500 nM | N#Cc1ccnc(N2[C@H](C(=O)N(c3cc(F)cc(F)c3)[C@@H](C(=O)NC3CC(F)(F)C3)c3ccccc3Cl)CCS2(=O)=O)c1 [Example 3, (S)—N—((R)-1-(2-chlorophenyl)-2-((3,3-difluorocyclobutyl)amino)-2-oxoethyl)-2-(4-cyanopyridin-2-yl)-N-(3,5-difluorophenyl)-isothiazolidine-3-carboxamide 1,1-dioxide]
3 | < 20 nM | N#Cc1ccnc(N2[C@H](C(=O)N(c3cc(F)cc(F)c3)[C@H](C(=O)NC3CC(F)(F)C3)c3ccccc3Cl)CCS2(=O)=O)c1 [Example 4, (S)—N—((S)-1-(2-chlorophenyl)-2-((3,3-difluorocyclobutyl)amino)-2-oxoethyl)-2-(4-cyanopyridin-2-yl)-N-(3,5-difluorophenyl)-isothiazolidine-3-carboxamide 1,1-dioxide]
4 | < 1000 nM | N#Cc1ccnc(N2[C@H](C(=O)N(c3cccc(C(F)(F)F)c3)[C@@H](C(=O)NC3CC(F)(F)C3)c3ccccc3Cl)CCS2(=O)=O)c1 [Example 5, (S)—N—((R)-1-(2-chlorophenyl)-2-((3,3-difluorocyclobutyl)amino)-2-oxoethyl)-2-(4-cyanopyridin-2-yl)-N-(3-trifluoromethylphenyl)-isothiazolidine-3-carboxamide 1,1-dioxide]
5 | < 20 nM | N#Cc1ccnc(N2[C@H](C(=O)N(c3cccc(C(F)(F)F)c3)[C@H](C(=O)NC3CC(F)(F)C3)c3ccccc3Cl)CCS2(=O)=O)c1 [Example 6, (S)—N—((S)-1-(2-chlorophenyl)-2-((3,3-difluorocyclobutyl)amino)-2-oxoethyl)-2-(4-cyanopyridin-2-yl)-N-(3-trifluoromethylphenyl)-isothiazolidine-3-carboxamide 1,1-dioxide]
6 | < 500 nM | N#Cc1cc(F)cc(N(C(=O)[C@@H]2CCS(=O)(=O)N2c2cc(C#N)ccn2)[C@@H](C(=O)NC2CC(F)(F)C2)c2ccccc2Cl)c1 [Example 7, (S)—N—((R)-1-(2-chlorophenyl)-2-((3,3-difluorocyclobutyl)amino)-2-oxoethyl)-2-(4-cyanopyridin-2-yl)-N-(3-cyano-5-fluorophenyl)-isothiazolidine-3-carboxamide 1,1-dioxide]
7 | < 20 nM | N#Cc1cc(F)cc(N(C(=O)[C@@H]2CCS(=O)(=O)N2c2cc(C#N)ccn2)[C@H](C(=O)NC2CC(F)(F)C2)c2ccccc2Cl)c1 [Example 8, (S)—N—((S)-1-(2-chlorophenyl)-2-((3,3-difluorocyclobutyl)amino)-2-oxoethyl)-2-(4-cyanopyridin-2-yl)-N-(3-cyano-5-fluorophenyl)-isothiazolidine-3-carboxamide 1,1-dioxide]
8 | < 1000 nM | N#Cc1ccnc(N2[C@H](C(=O)N(c3ccc(F)c(F)c3)[C@@H](C(=O)NC3CC(F)(F)C3)c3ccccc3Cl)CCS2(=O)=O)c1 [Example 9, (S)—N—((R)-1-(2-chlorophenyl)-2-((3,3-difluorocyclobutyl)amino)-2-oxoethyl)-2-(4-cyanopyridin-2-yl)-N-(3,4-difluorophenyl)-isothiazolidine-3-carboxamide 1,1-dioxide]
9 | < 20 nM | N#Cc1ccnc(N2[C@H](C(=O)N(c3ccc(F)c(F)c3)[C@H](C(=O)NC3CC(F)(F)C3)c3ccccc3Cl)CCS2(=O)=O)c1 [Example 10, (S)—N—((S)-1-(2-chlorophenyl)-2-((3,3-difluorocyclobutyl)amino)-2-oxoethyl)-2-(4-cyanopyridin-2-yl)-N-(3,4-difluorophenyl)-isothiazolidine-3-carboxamide 1,1-dioxide]
10 | < 500 nM | N#Cc1ccnc(N2[C@H](C(=O)N(c3cccc(F)c3)[C@@H](C(=O)NC3CC(F)(F)C3)c3ccccc3Cl)CCS2(=O)=O)c1 [Example 11, (S)—N—((R)-1-(2-chlorophenyl)-2-((3,3-difluorocyclobutyl)amino)-2-oxoethyl)-2-(4-cyanopyridin-2-yl)-N-(3-fluorophenyl)-isothiazolidine-3-carboxamide 1,1-dioxide]
11 | < 1000 nM | O=C(NC1CCCCC1)[C@@H](c1ccccc1Cl)N(C(=O)[C@@H]1CCS(=O)(=O)N1c1ncccn1)c1cccc(F)c1 [Example 13, (S)—N—((R)-1-(2-chlorophenyl)-2-(cyclohexylamino)-2-oxoethyl)-2-(pyrimidin-2-yl)-N-(3-fluorophenyl)-isothiazolidine-3-carboxamide 1,1-dioxide]
12 | < 20 nM | O=C(NC1CCCCC1)[C@H](c1ccccc1Cl)N(C(=O)[C@@H]1CCS(=O)(=O)N1c1ncccn1)c1cccc(F)c1 [Example 14, (S)—N—((S)-1-(2-chlorophenyl)-2-(cyclohexylamino)-2-oxoethyl)-2-(pyrimidin-2-yl)-N-(3-fluorophenyl)-isothiazolidine-3-carboxamide 1,1-dioxide]
13 | < 500 nM | N#Cc1ccnc(N2[C@H](C(=O)N(c3cccc(F)c3)[C@@H](C(=O)NC3CCCCC3)c3ccccc3Cl)CCS2(=O)=O)c1 [Example 15, (S)—N—((R)-1-(2-chlorophenyl)-2-(cyclohexylamino)-2-oxoethyl)-2-(4-cyanopyridin-2-yl)-N-(3-fluorophenyl)-isothiazolidine-3-carboxamide 1,1-dioxide]
14 | < 20 nM | N#Cc1ccnc(N2[C@H](C(=O)N(c3cccc(F)c3)[C@H](C(=O)NC3CCCCC3)c3ccccc3Cl)CCS2(=O)=O)c1 [Example 16, (S)—N—((S)-1-(2-chlorophenyl)-2-(cyclohexylamino)-2-oxoethyl)-2-(4-cyanopyridin-2-yl)-N-(3-fluorophenyl)-isothiazolidine-3-carboxamide 1,1-dioxide]
15 | < 10000 nM | O=C(NC1CCCCC1)[C@@H](c1ccccc1Cl)N(C(=O)[C@@H]1CCS(=O)(=O)N1c1cc(F)ccn1)c1cccc(F)c1 [Example 17, (S)—N—((R)-1-(2-chlorophenyl)-2-(cyclohexylamino)-2-oxoethyl)-2-(4-fluoropyridin-2-yl)-N-(3-fluorophenyl)-isothiazolidine-3-carboxamide 1,1-dioxide]
16 | < 100 nM | O=C(NC1CCCCC1)[C@H](c1ccccc1Cl)N(C(=O)[C@@H]1CCS(=O)(=O)N1c1cc(F)ccn1)c1cccc(F)c1 [Example 18, (S)—N—((S)-1-(2-chlorophenyl)-2-(cyclohexylamino)-2-oxoethyl)-2-(4-fluoropyridin-2-yl)-N-(3-fluorophenyl)-isothiazolidine-3-carboxamide 1,1-dioxide]
17 | < 1000 nM | C#Cc1ccnc(N2[C@H](C(=O)N(c3cccc(F)c3)C(C(=O)NC3CCCCC3)c3ccccc3Cl)CCS2(=O)=O)c1 (stereo partly drawn) [Example 19, (3S)—N-(1-(2-chlorophenyl)-2-(cyclohexylamino)-2-oxoethyl)-N-(3-fluorophenyl)-2-(4-ethynylpyridin-2-yl)isothiazolidine-3-carboxamide 1,1-dioxide]
18 | < 20 nM | N#Cc1ccnc(NS(=O)(=O)c2cccc(N(C(=O)[C@@H]3CCS(=O)(=O)N3c3cc(C#N)ccn3)C(C(=O)NC3CCCCC3)c3ccccc3Cl)c2)c1 (stereo partly drawn) [Example 20, (3S)—N-(1-(2-chlorophenyl)-2-(cyclohexylamino)-2-oxoethyl)-2-(4-cyanopyridin-2-yl)-N-(3-(N-(4-cyanopyridin-2-yl)aminosulfonyl)phenyl)-isothiazolidine-3-carboxamide 1,1-dioxide]
19 | < 10000 nM | N#Cc1cccc(CN2[C@H](C(=O)N(c3cccc(F)c3)C(C(=O)NC3CCCCC3)c3ccccc3Cl)CCS2(=O)=O)c1 (stereo partly shown) [Example 21]
20 | < 1000 nM | N#Cc1ccnc(N2[C@H](C(=O)N(c3cccc(F)c3)[C@@H](C(=O)NC3CCC(F)(F)CC3)c3ccccc3Cl)CCS2(=O)=O)c1 [Example 22]
21 | < 20 nM | N#Cc1ccnc(N2[C@H](C(=O)N(c3cccc(F)c3)[C@H](C(=O)NC3CCC(F)(F)CC3)c3ccccc3Cl)CCS2(=O)=O)c1 [Example 23, (S)—N—((S)-1-(2-chlorophenyl)-2-((4,4-difluorocyclohexyl)amino)-2-oxoethyl)-2-(4-cyanopyridin-2-yl)-N-(3-fluorophenyl)-isothiazolidine-3-carboxamide 1,1-dioxide]
22 | < 20 nM | N#Cc1ccnc(N2[C@H](C(=O)N(c3cccc(F)c3)[C@H](C(=O)NC3CC(F)(F)C3)c3ccccc3Cl)CNS2(=O)=O)c1 [Example 24, (S)—N—((S)-1-(2-chlorophenyl)-2-((3,3-difluorocyclobutyl)amino)-2-oxoethyl)-2-(4-cyanopyridin-2-yl)-N-(3-fluorophenyl)-1,2,5-thiadiazolidine-3-carboxamide 1,1-dioxide]
